Laboratory results as given in article PMC8819291, “Adaptively evolved human oral actinomyces‐sourced defensins show therapeutic potential” (EMBO Molecular Medicine, 2021).
Entries after “also recorded” stand apart in the source; their conditions may differ. Where a SMILES comes first, the peptide text is derived from it. Bridges are numbered along the chain shown (N, C = ends).

Key:
gram‐positive bacteria = assay: Inhibition-zone assay, groups of strains; assay type: cell-based
Source text: Bacterial media used here included: Luria‐Bertani (LB) medium, THY medium (30 g Todd Hewitt broth and 5 g Yeast extract per liter), and tryptic soy broth (TSB) (Oxoid, Basingstoke, UK); Broth medium and brain–heart infusion (BHI) medium (Beijing Landbridge technology Limited by Share Ltd., Beijing, China); Potato dextrose (PD) medium (self‐prepared).
In brief, an overnight bacterial culture from a single colony was inoculated into fresh medium and grew to late log‐phase. A 10‐μl aliquot of each culture was diluted in 6‐ml pre‐heated medium containing 0.8% agar. The mixture was spread on a 9‐cm Petri dish, giving a depth of 1 mm. After settling, 3‐mm wells were punched in the plate and then 2‐μl peptide samples of different concentrations were added to each well. The agar plates were incubated overnight at indicated temperatures (Table EV4). A lethal concentration (C L ) was calculated from a plot of d^2 against log n, where d is the diameter (in cm) and n is the amount of sample applied in the well (in nmol). The plot is linear, and thus C L can be calculated from the slope (k) and the intercept (m) of this plot.

MRSA P1374 = assay: Mouse peritonitis model; assay type: in vivo
Method: ICR male mice (30 g each mouse; 6 weeks of age) were infected with 0.5 ml of bacterial suspension (1 × 10^8 CFU per mouse) via intraperitoneal injection (i.p.), a dose that achieved 100% mortality within 24 h after infection. […] Vehicle (0.9%) treated control group included 11 mice. Schematic representation is provided in Appendix Fig S16C.

CC[C@H](C)[C@@H]1NC(=O)[C@H](CCCCN)NC(=O)CNC(=O)[C@H](CCCNC(=N)N)NC(=O)[C@@H]2CSSC[C@H](NC(=O)CNC(=O)[C@H](Cc3ccccc3)NC(=O)CN)C(=O)N3CCC[C@H]3C(=O)N[C@@H](Cc3c[nH]c4ccccc34)C(=O)N[C@@H](CC(N)=O)C(=O)N[C@@H](C)C(=O)N[C@@H](Cc3ccc(O)cc3)C(=O)N[C@@H](CCC(=O)O)C(=O)N[C@H]3CSSC[C@H](NC(=O)[C@H]([C@@H](C)O)NC(=O)[C@H](CCC(N)=O)NC(=O)[C@H](CCCNC(=N)N)NC1=O)C(=O)N[C@@H](Cc1c[nH]cn1)C(=O)N[C@H](C(=O)N[C@@H](Cc1ccc(O)cc1)C(=O)O)CSSC[C@H](NC(=O)[C@H](Cc1c[nH]cn1)NC(=O)[C@H](CCCNC(=N)N)NC(=O)[C@H](CC(=O)O)NC3=O)C(=O)N[C@@H](C(C)C)C(=O)N[C@@H](CO)C(=O)N[C@@H](CCCCN)C(=O)NCC(=O)N[C@@H](Cc1ccc(O)cc1)C(=O)N[C@@H]([C@@H](C)O)C(=O)NCC(=O)NCC(=O)N[C@@H](CC(N)=O)C(=O)N2 [AMSIN] (H-GFGCPWNAYECDRHCVSKGYTGGNCRGKIRQTCHCY-OH; disulfide 4-25, 11-33, 15-35; N-terminus and C-terminus assumed)
Lethal concentrations (C L) (gram‐positive bacteria; SP (strains D39, R6, ST556, and TIGR4)): about 0.10 μM | C L (gram‐positive bacteria; three oral Streptococcus bacteria (S. mutans, S. salivarius, and S. sanguinis)): 0.5 to 1.4 µM | Survival after peritoneal infection with MRSA P1374 (MRSA P1374; 1 × 10^8 CFU i.p., AMSIN i.v. 1 h post‐infection 20 mg per kg, then 10 mg per kg once daily, six mice, 7‐day study period): all survived; also recorded: survived the 7‐day study period | Toxicity of administration route in the model (MRSA P1374; intravenous injection (i.v.)): no obvious toxicity | Duration of continued survival (MRSA P1374; same six treated mice, observation period): > 30 days
